Measurements from ChEMBL document CHEMBL2396653, “Synthesis and antimycobacterial evaluation of N-substituted 5-chloropyrazine-2-carboxamides” (Bioorg Med Chem Lett, 2013).
Values after ≈ are worked out from the molar mass of the structure shown. Active and inactive are the calls of the source. The calls are words filed in the database; no cut-off is given here.

Legend:
[1] = test system: Mycobacterium tuberculosis; test: Antimycobacterial activity against Mycobacterium tuberculosis H37Rv assessed as growth inhibition after 14 days by microdilution method; format: functional; settings: 336 h
[2] = test system: Staphylococcus epidermidis; test: Antibacterial activity against Staphylococcus epidermidis H 6966/08 clinical isolate assessed as growth inhibition after 24 to 48 hrs by microbroth dilution method; format: functional, organism-based
Staphylococcus aureus [3] = test: Antibacterial activity against methicillin-resistant Staphylococcus aureus H 5996/08 clinical isolate assessed as growth inhibition after 24 to 48 hrs by microbroth dilution method; format: functional, organism-based
Klebsiella pneumoniae [4] = test: Antibacterial activity against ESBL-positive Klebsiella pneumoniae J 14368/08 clinical isolate assessed as growth inhibition after 24 to 48 hrs by microbroth dilution method; format: functional, organism-based
Nakaseomyces glabratus = test: Antifungal activity against Candida glabrata 20/I assessed as growth inhibition after 24 to 48 hrs by microbroth dilution method; format: functional, organism-based
Escherichia coli = test: Antibacterial activity against Escherichia coli CCM 4517 assessed as growth inhibition after 24 to 48 hrs by microbroth dilution method; format: functional, organism-based
Candida albicans = test: Antifungal activity against Candida albicans ATCC 44859 assessed as growth inhibition after 24 to 48 hrs by microbroth dilution method; format: functional, organism-based
Staphylococcus aureus [5] = test: Antibacterial activity against Staphylococcus aureus CCM 4516/08 assessed as growth inhibition after 24 to 48 hrs by microbroth dilution method; format: functional, organism-based
Mycobacterium kansasii = test: Antimycobacterial activity against Mycobacterium kansasii CNCTC My 235/80 assessed as growth inhibition after 14 days by microdilution method; format: functional; settings: CNCTC My 235/80, 336 h
Klebsiella pneumoniae [6] = test: Antibacterial activity against Klebsiella pneumoniae D 11750/08 clinical isolate assessed as growth inhibition after 24 to 48 hrs by microbroth dilution method; format: functional, organism-based
Pseudomonas aeruginosa = test: Antibacterial activity against Pseudomonas aeruginosa CCM 1961 assessed as growth inhibition after 24 to 48 hrs by microbroth dilution method; format: functional, organism-based
[7] = Lipophilicity, log K of the compound by HPLC analysis; format: physicochemical
Lichtheimia corymbifera = test: Antifungal activity against Absidia corymbifera 272 assessed as growth inhibition after 24 to 48 hrs by microbroth dilution method; format: functional, organism-based
[8] = test system: Trichophyton mentagrophytes; test: Antifungal activity against Trichophyton mentagrophytes 445 assessed as growth inhibition after 72 to 120 hrs by microbroth dilution method; format: functional, organism-based
Enterococcus = test: Antibacterial activity against Enterococcus sp. J 14365/08 clinical isolate assessed as growth inhibition after 24 to 48 hrs by microbroth dilution method; format: functional, organism-based
Pichia kudriavzevii = test: Antifungal activity against Candida krusei E28 assessed as growth inhibition after 24 to 48 hrs by microbroth dilution method; format: functional, organism-based
Aspergillus fumigatus = test: Antifungal activity against Aspergillus fumigatus 231 assessed as growth inhibition after 24 to 48 hrs by microbroth dilution method; format: functional, organism-based
Trichosporon asahii = test: Antifungal activity against Trichosporon asahii 1188 assessed as growth inhibition after 24 to 48 hrs by microbroth dilution method; format: functional, organism-based
Candida tropicalis = test: Antifungal activity against Candida tropicalis 156 assessed as growth inhibition after 24 to 48 hrs by microbroth dilution method; format: functional, organism-based
Mycobacterium avium [9] = test: Antimycobacterial activity against Mycobacterium avium CNCTC My 80/72 assessed as growth inhibition after 14 days by microdilution method; format: functional; settings: CNCTC My 80/72, 336 h
Mycobacterium avium [10] = test: Antimycobacterial activity against Mycobacterium avium CNCTC My 152/73 assessed as growth inhibition after 14 days by microdilution method; format: functional; settings: CNCTC My 152/73, 336 h
[11] = Stability of the compound at pH 7; format: physicochemical; settings: buffer

SMILES	MIC [1] [µg/mL]	growth inhibition (GI) [2]	growth inhibition (GI) (Staphylococcus aureus [3])	growth inhibition (GI) (Klebsiella pneumoniae [4])	growth inhibition (GI) (Nakaseomyces glabratus)	growth inhibition (GI) (Escherichia coli)	growth inhibition (GI) (Candida albicans)	growth inhibition (GI) (Staphylococcus aureus [5])	MIC (Mycobacterium kansasii) [µg/mL]	growth inhibition (GI) (Klebsiella pneumoniae [6])	growth inhibition (GI) (Pseudomonas aeruginosa)	log K [7]	growth inhibition (GI) (Lichtheimia corymbifera)	growth inhibition (GI) [8]	growth inhibition (GI) (Pichia kudriavzevii)	growth inhibition (GI) (Aspergillus fumigatus)	growth inhibition (GI) (Trichosporon asahii)	growth inhibition (GI) (Candida tropicalis)	MIC (Mycobacterium avium [9]) [µg/mL]	MIC (Mycobacterium avium [10]) [µg/mL]	further results
O=C(Nc1cccc(Cl)c1)c1cnc(Cl)cn1	3.13 (≈ 11.7 µM)	inactive	inactive	inactive	inactive	inactive	inactive	inactive	25 (≈ 93.2 µM)	inactive	inactive	0.5873	inactive	inactive	inactive	inactive	inactive	inactive	25 (≈ 93.2 µM)	25 (≈ 93.2 µM)	growth inhibition (GI) (Enterococcus): inactive; Stability [11]: Stable
O=C(NCc1ccccc1C(F)(F)F)c1cnc(Cl)cn1	25 (≈ 79.2 µM)	inactive	inactive	inactive	inactive	inactive	inactive	inactive	100 (≈ 317 µM)	inactive	inactive	0.4851	inactive	inactive	inactive	inactive	inactive	inactive	> 100	> 100	growth inhibition (GI) (Enterococcus): inactive; Stability [11]: Stable
O=C(NCc1ccccc1Cl)c1cnc(Cl)cn1	25 (≈ 88.6 µM)	inactive	inactive	inactive	inactive	inactive	inactive	inactive	6.25 (≈ 22.2 µM)	inactive	inactive	0.4168	inactive	inactive	inactive	inactive	inactive	inactive	> 100	> 100	growth inhibition (GI) (Enterococcus): inactive; Stability [11]: Stable
NNC(=O)c1ccncc1 [ISONIAZID]	1.56 (≈ 11.4 µM)	–	–	–	–	–	–	–	12.5 (≈ 91.1 µM)	–	–	–	–	–	–	–	–	–	25 (≈ 182 µM)	6.25 (≈ 45.6 µM)	–
O=C(NCc1cccc([N+](=O)[O-])c1)c1cnc(Cl)cn1	> 100	inactive	inactive	inactive	inactive	inactive	inactive	inactive	12.5 (≈ 42.7 µM)	inactive	inactive	0.1189	inactive	inactive	inactive	inactive	inactive	inactive	> 100	> 100	growth inhibition (GI) (Enterococcus): inactive; Stability [11]: Stable
O=C(Nc1ccccc1Cl)c1cnc(Cl)cn1	0.78 (≈ 2.91 µM)	inactive	inactive	inactive	inactive	inactive	inactive	inactive	–	inactive	inactive	0.8193	inactive	inactive	inactive	inactive	inactive	inactive	> 100	> 100	growth inhibition (GI) (Enterococcus): inactive; Stability [11]: Stable
O=C(Nc1cccc([N+](=O)[O-])c1)c1cnc(Cl)cn1	3.13 (≈ 11.2 µM)	inactive	inactive	inactive	inactive	inactive	inactive	inactive	–	inactive	inactive	0.3443	inactive	inactive	inactive	inactive	inactive	inactive	> 100	> 100	growth inhibition (GI) (Enterococcus): inactive; Stability [11]: Stable
COc1ccc(CNC(=O)c2cnc(Cl)cn2)c(OC)c1	> 100	inactive	inactive	inactive	inactive	inactive	inactive	inactive	> 100	inactive	inactive	0.2266	inactive	inactive	inactive	inactive	inactive	inactive	> 100	> 100	growth inhibition (GI) (Enterococcus): inactive; Stability [11]: Stable
O=C(NCc1cccc(Cl)c1)c1cnc(Cl)cn1	25 (≈ 88.6 µM)	inactive	inactive	inactive	inactive	inactive	inactive	inactive	50 (≈ 177 µM)	inactive	inactive	0.4229	inactive	inactive	inactive	inactive	inactive	inactive	> 100	> 100	growth inhibition (GI) (Enterococcus): inactive; Stability [11]: Stable
O=C(NCc1ccccc1F)c1cnc(Cl)cn1	25 (≈ 94.1 µM)	inactive	inactive	inactive	inactive	inactive	inactive	inactive	50 (≈ 188 µM)	inactive	inactive	0.3395	inactive	inactive	inactive	inactive	inactive	inactive	> 100	> 100	growth inhibition (GI) (Enterococcus): inactive; Stability [11]: Stable
OC(Cn1cncn1)(Cn1cncn1)c1ccc(F)cc1F	–	–	–	–	Active	–	Active	–	–	–	–	–	Active	Active	Active	Active	Active	Active	–	–	–
NC(=O)c1cnccn1 [PYRAZINAMIDE]	12.5 (≈ 102 µM)	–	–	–	–	–	–	–	> 100	–	–	–	–	–	–	–	–	–	> 100	> 100	–
